Reference: patent US5326788A, “Biological fluid purification system” (priority 1992, dated 1994)

Legend:
[1] = Addition of hypericin to whole blood: standard blood chemistries, complete blood count, coagulation profile; design: species or system human; MCV / MCH / MCHC / Bilirubin (direct): unit not given here
Procedure: Triplicate samples of blood were drawn from two normal individuals directly into vacuum tubes. Into one set of tubes was added hypericin dissolved in 10% ethanol, 40% propylene glycol, 50% water to a final concentration of hypericin of 0.1 micrograms/ml of blood. A second set of tubes received hypericin at 1.0 micrograms/ml of blood. The final concentration of ethanol was 0.01% and of propylene glycol 0.04% in each sample, respectively. The third set served as an untreated control. Hypericin-treated and untreated samples were taken directly to a clinical laboratory for testing of standard blood chemistries, complete blood count, and a coagulation profile.

HIV-2 = experiment: Syncytia assay, HUT78 cells infected with ROD-2 isolate co-cultured with H9 cells; type: cell-based; settings: 24 hours
Procedure: In order to assess the effects of Hy and Ps on the ability of HIV to form syncytia, the following experiments were performed. For the analysis of HIV-1, an entry syncytia assay was performed by co-culturing H9 cells (described in Popovic, M. et al. Science 224: 497-500, 1984) infected with the IIIb isolate of HIV with uninfected Supt-1 cells (Walker, B. D. et al. Proc. Nat. Acad. Sci. (USA) 84: 8120-8124, 1987) as the target cell. HIV-2 was tested using HUT78 cells (obtained from the National Institute of Health by reference to Depository Catalog, Reagent Program, Bethesda, Md.) infected with the ROD-2 isolate of HIV-2 co-cultured with uninfected H9 target cells. The infected cells were plated in 96 well plates (10^4 cells per well in RPM1 1640 medium with 10% fetal calf serum) and incubated with or without dilutions of Ps or Hy for 30 minutes at 37° C. 1×10^5 target cells were then added per well and the number of syncytia were quantitatively and qualitatively determined after 24 hours.

Cc1cc(O)c2c(=O)c3c(O)cc(O)c4c5c(O)cc(O)c6c(=O)c7c(O)cc(C)c8c1c2c(c34)c(c78)c65 [hypericin]
effect on blood chemistries and hematologic parameters (summary) ([1]; 1.0 and 0.1 micrograms/ml): no significant effect
BUN ([1]; Subject #1, 0.1 micrograms/ml): 13 mg/dL
Bilirubin ([1]; Subject #1, 0.1 micrograms/ml): 0.5 mg/dL
Bilirubin (direct) ([1]; Subject #1, 0.1 micrograms/ml): 0.1
CO2 ([1]; Subject #1, 0.1 micrograms/ml): 28 meq/l
Ca^+ ([1]; Subject #1, 0.1 micrograms/ml): 10.1 mg/dL
Cl^- ([1]; Subject #1, 0.1 micrograms/ml): 106 meq/l
Creat ([1]; Subject #1, 0.1 micrograms/ml): 0.9 mg/dL
ESR ([1]; Subject #1, 0.1 micrograms/ml): 5 mm/hr
Hb ([1]; Subject #1, 0.1 micrograms/ml): 15.8 gm/dl
Hct ([1]; Subject #1, 0.1 micrograms/ml): 46.7%
K^+ ([1]; Subject #1, 0.1 micrograms/ml): 4.2 meq/l
LDH ([1]; Subject #1, 0.1 micrograms/ml): 154 IU/l
MCH ([1]; Subject #1, 0.1 micrograms/ml): 30.8
MCHC ([1]; Subject #1, 0.1 micrograms/ml): 33.8
MCV ([1]; Subject #1, 0.1 micrograms/ml): 91.0
Na^+ ([1]; Subject #1, 0.1 micrograms/ml): 140 meq/l
SGOT ([1]; Subject #1, 0.1 micrograms/ml): 19 IU/l
WBC ([1]; Subject #1, 0.1 micrograms/ml): 8.1 /cu mm
albumin ([1]; Subject #1, 0.1 micrograms/ml): 4.8 gm/dl
alk phos ([1]; Subject #1, 0.1 micrograms/ml): 76 IU/l
cholesterol ([1]; Subject #1, 0.1 micrograms/ml): 255 mg/dL
glucose ([1]; Subject #1, 0.1 micrograms/ml): 107 mg/dL
lymphs ([1]; Subject #1, 0.1 micrograms/ml): 34.9%
monos ([1]; Subject #1, 0.1 micrograms/ml): 4.2%
neutr ([1]; Subject #1, 0.1 micrograms/ml): 60.9%
phosphate ([1]; Subject #1, 0.1 micrograms/ml): 3.7 mg/dL
total protein ([1]; Subject #1, 0.1 micrograms/ml): 7.5 gm/dl
uric acid ([1]; Subject #1, 0.1 micrograms/ml): 5.7 mg/dL
BUN ([1]; Subject #1, 1.0 micrograms/ml): 12 mg/dL
Bilirubin ([1]; Subject #1, 1.0 micrograms/ml): 0.5 mg/dL
Bilirubin (direct) ([1]; Subject #1, 1.0 micrograms/ml): 0.1
CO2 ([1]; Subject #1, 1.0 micrograms/ml): 28 meq/l
Ca^+ ([1]; Subject #1, 1.0 micrograms/ml): 10.2 mg/dL
Cl^- ([1]; Subject #1, 1.0 micrograms/ml): 106 meq/l
Creat ([1]; Subject #1, 1.0 micrograms/ml): 0.9 mg/dL
ESR ([1]; Subject #1, 1.0 micrograms/ml): 4 mm/hr
Hb ([1]; Subject #1, 1.0 micrograms/ml): 16.0 gm/dl
Hct ([1]; Subject #1, 1.0 micrograms/ml): 47.6%
K^+ ([1]; Subject #1, 1.0 micrograms/ml): 4.3 meq/l
LDH ([1]; Subject #1, 1.0 micrograms/ml): 153 IU/l
MCH ([1]; Subject #1, 1.0 micrograms/ml): 30.6
MCHC ([1]; Subject #1, 1.0 micrograms/ml): 33.6
MCV ([1]; Subject #1, 1.0 micrograms/ml): 91.1
Na^+ ([1]; Subject #1, 1.0 micrograms/ml): 137 meq/l
SGOT ([1]; Subject #1, 1.0 micrograms/ml): 15 IU/l
WBC ([1]; Subject #1, 1.0 micrograms/ml): 8.0 /cu mm
albumin ([1]; Subject #1, 1.0 micrograms/ml): 4.8 gm/dl
alk phos ([1]; Subject #1, 1.0 micrograms/ml): 75 IU/l
cholesterol ([1]; Subject #1, 1.0 micrograms/ml): 258 mg/dL
glucose ([1]; Subject #1, 1.0 micrograms/ml): 105 mg/dL
lymphs ([1]; Subject #1, 1.0 micrograms/ml): 32.9%
monos ([1]; Subject #1, 1.0 micrograms/ml): 5.5%
neutr ([1]; Subject #1, 1.0 micrograms/ml): 61.6%
phosphate ([1]; Subject #1, 1.0 micrograms/ml): 3.6 mg/dL
total protein ([1]; Subject #1, 1.0 micrograms/ml): 7.5 gm/dl
uric acid ([1]; Subject #1, 1.0 micrograms/ml): 5.6 mg/dL
BUN ([1]; Subject #2, 0.1 micrograms/ml): 9 mg/dL
Bilirubin ([1]; Subject #2, 0.1 micrograms/ml): 0.5 mg/dL
Bilirubin (direct) ([1]; Subject #2, 0.1 micrograms/ml): 0.1
CO2 ([1]; Subject #2, 0.1 micrograms/ml): 27 meq/l
Ca^+ ([1]; Subject #2, 0.1 micrograms/ml): 9.5 mg/dL
Cl^- ([1]; Subject #2, 0.1 micrograms/ml): 108 meq/l
Creat ([1]; Subject #2, 0.1 micrograms/ml): 0.7 mg/dL
ESR ([1]; Subject #2, 0.1 micrograms/ml): 1 mm/hr
Hb ([1]; Subject #2, 0.1 micrograms/ml): 13.0 gm/dl
Hct ([1]; Subject #2, 0.1 micrograms/ml): 37.8%
K^+ ([1]; Subject #2, 0.1 micrograms/ml): 4.4 meq/l
LDH ([1]; Subject #2, 0.1 micrograms/ml): 110 IU/L
MCH ([1]; Subject #2, 0.1 micrograms/ml): 31.4
MCHC ([1]; Subject #2, 0.1 micrograms/ml): 34.4
MCV ([1]; Subject #2, 0.1 micrograms/ml): 91.4
Na^+ ([1]; Subject #2, 0.1 micrograms/ml): 140 meq/l
SGOT ([1]; Subject #2, 0.1 micrograms/ml): 15 IU/L
WBC ([1]; Subject #2, 0.1 micrograms/ml): 6.7 /cu mm
albumin ([1]; Subject #2, 0.1 micrograms/ml): 4.5 gm/dl
alk phos ([1]; Subject #2, 0.1 micrograms/ml): 51 IU/l
cholestrol ([1]; Subject #2, 0.1 micrograms/ml): 133 mg/dL
glucose ([1]; Subject #2, 0.1 micrograms/ml): 96 mg/dL
lymphs ([1]; Subject #2, 0.1 micrograms/ml): 33.1%
monos ([1]; Subject #2, 0.1 micrograms/ml): 4.9%
neutr ([1]; Subject #2, 0.1 micrograms/ml): 62.0%
phosphate ([1]; Subject #2, 0.1 micrograms/ml): 3.0 mg/dL
total protein ([1]; Subject #2, 0.1 micrograms/ml): 6.4 g/dL
uric acid ([1]; Subject #2, 0.1 micrograms/ml): 4.2 mg/dL
BUN ([1]; Subject #2, 1.0 micrograms/ml): 8 mg/dL
Bilirubin ([1]; Subject #2, 1.0 micrograms/ml): 0.5 mg/dL
Bilirubin (direct) ([1]; Subject #2, 1.0 micrograms/ml): 0.1
CO2 ([1]; Subject #2, 1.0 micrograms/ml): 27 meq/l
Ca^+ ([1]; Subject #2, 1.0 micrograms/ml): 9.5 mg/dL
Cl^- ([1]; Subject #2, 1.0 micrograms/ml): 108 meq/l
Creat ([1]; Subject #2, 1.0 micrograms/ml): 0.6 mg/dL
ESR ([1]; Subject #2, 1.0 micrograms/ml): 1 mm/hr
Hb ([1]; Subject #2, 1.0 micrograms/ml): 12.9 gm/dl
Hct ([1]; Subject #2, 1.0 micrograms/ml): 37.3%
K^+ ([1]; Subject #2, 1.0 micrograms/ml): 4.5 meq/l
LDH ([1]; Subject #2, 1.0 micrograms/ml): 97 IU/L
MCH ([1]; Subject #2, 1.0 micrograms/ml): 31.6
MCHC ([1]; Subject #2, 1.0 micrograms/ml): 34.6
MCV ([1]; Subject #2, 1.0 micrograms/ml): 91.3
Na^+ ([1]; Subject #2, 1.0 micrograms/ml): 141 meq/l
SGOT ([1]; Subject #2, 1.0 micrograms/ml): 14 IU/L
WBC ([1]; Subject #2, 1.0 micrograms/ml): 6.4 /cu mm
albumin ([1]; Subject #2, 1.0 micrograms/ml): 4.4 gm/dl
alk phos ([1]; Subject #2, 1.0 micrograms/ml): 52 IU/l
cholestrol ([1]; Subject #2, 1.0 micrograms/ml): 131 mg/dL
glucose ([1]; Subject #2, 1.0 micrograms/ml): 95 mg/dL
lymphs ([1]; Subject #2, 1.0 micrograms/ml): 32.0
monos ([1]; Subject #2, 1.0 micrograms/ml): 5.2%
neutr ([1]; Subject #2, 1.0 micrograms/ml): 62.8%
phosphate ([1]; Subject #2, 1.0 micrograms/ml): 3.1 mg/dL
total protein ([1]; Subject #2, 1.0 micrograms/ml): 6.3 g/dL
uric acid ([1]; Subject #2, 1.0 micrograms/ml): 4.1 mg/dL
syncytia score (number 0-4, size S/M/L) (HIV-2; 7 nanograms): 4 L
syncytia score (number 0-4, size S/M/L) (HIV-2; 14 nanograms): 4 L
syncytia score (number 0-4, size S/M/L) (HIV-2; 28 nanograms): 4 L
syncytia score (number 0-4, size S/M/L) (HIV-2; 56 nanograms): 3 M
syncytia score (number 0-4, size S/M/L) (HIV-2; 112 nanograms): 1S
syncytia score (number 0-4, size S/M/L) (HIV-2; 225 nanograms): 0
syncytia score (number 0-4, size S/M/L) (HIV-2; 450 nanograms): 0
syncytia score (number 0-4, size S/M/L) (HIV-2; 900 nanograms): 0
syncytia score (number 0-4, size S/M/L) (HIV-2; 1800 nanograms): 0
